The values that follow come from ChEMBL document CHEMBL1201862, “PubChem BioAssay data set” (2004).

SMILES strings stand for the structures.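 Interpolation was linear, between the two tested concentrations surrounding the appropriate level; five concentrations were tested over 48 hours in 96-well plates. GI50 is the concentration that inhibits growth by half.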 The source made the active and inactive calls. Cut-off read from the data, not from the text of the source: active = GI50 up to about 1.1 µM and inactive = higher. A value given as a limit tells only on which side of the number the result lay.

Among the test systems are T47D; MDA-N; DLD-1; LXFL 529; SNB-78; DMS-114; XF498; HOP-18.
Holding throughout (assay): DTP human tumour cell line panel, 48 h

Regarding `c1ccc(-c2nnc(-c3ccccn3)c3c2C[C@@H]2C[C@@H]4Cc5c(-c6ccccn6)nnc(-c6ccccn6)c5[C@@H]4[C@H]32)nc1`, the GI50 in the test on T47D is 38.6 µM (inactive); in the test on MDA-N, 46.6 µM (inactive).

Turning to `ClC1=NN=C(c2c[nH]c3ccccc23)CC1NCc1ccccc1` (centres undefined), the GI50 in the test with T47D and in the test on MDA-N was > 100 µM (inactive) each time.

Consider `COc1cc(OC)c(C#N)c(OC)c1C`, for which the GI50 in the test with DLD-1 is > 100 µM (inactive); in the test on LXFL 529 it was > 100 µM (inactive); in the test with SNB-78, > 100 µM (inactive); in the test on DMS-114, > 100 µM (inactive); with XF498, 5.62 µM (inactive).

For the molecule `CCOC(=O)c1c(SCc2ccccc2)nc2c3ccccc3ccn12`, the GI50 with T47D and in the test with MDA-N was > 100 µM (inactive) each time.

Take `CN1Cc2cc(O)c(O)cc2C(O)C1` (centres undefined): the GI50 is > 100 µM (inactive) in the test with T47D and 55.2 µM (inactive) with MDA-N.

In the case of `OC(c1nc2ccccc2s1)(C(F)(F)F)C(F)(F)F`, the GI50 in the test on T47D and in the test on MDA-N was > 100 µM (inactive) throughout.

For the molecule `C1CSCC2(COC2)CS1`, the GI50 with MDA-N was > 100 µM (inactive).

Turning to `CCCCCCCCCCCCCCCCCCNc1ccn(C2OC(COP(=O)(O)OCC3OC(n4cc(C)c(=O)[nH]c4=O)CC3O)C(O)C2O)c(=O)n1` (centres undefined), the GI50 was 17.3 µM (inactive) in the test on T47D and 18.4 µM (inactive) in the test on MDA-N.

`C[N+]1(CCCC[N+]2(C)CCCCCCC2)CCCCCCC1`: the GI50 in the test on T47D and in the test on MDA-N was > 100 µM (inactive) each time.

Turning to `CCOC(=O)NC(C(F)(F)F)(C(F)(F)F)P(=O)(OC(C)C)OC(C)C`, the GI50 in the test on MDA-N was > 100 µM (inactive).

`O=C1C(Cl)C(c2cc3cc(Br)ccc3nc2Cl)N1c1c(Cl)cccc1Cl` (centres undefined): the results for the GI50 with T47D and in the test on MDA-N were 11.6 µM (inactive) and 9.68 µM (inactive), respectively.

With `O=C(c1ccc(O)cc1O)C1C(c2ccc(O)cc2)OC(c2ccc(O)cc2)C1C(=O)c1ccc(O)cc1O` (centres undefined), the GI50 was 44.1 µM (inactive) in the test on DLD-1, 17.3 µM (inactive) in the test with LXFL 529, 19.1 µM (inactive) in the test with SNB-78 and 15.5 µM (inactive) in the test with XF498.

Consider `CCC1(O)CC(CCN(Cc2ccccc2)C(=O)OCc2ccccc2)C(OCc2ccccc2)C1O` (centres undefined), for which the GI50 in the test on T47D was 12.2 µM (inactive); in the test with MDA-N, 26.8 µM (inactive).

As for `COc1ccc([C@H]2CC(=O)C[C@H](c3ccc(OC)cc3OC)C23C(=O)c2ccccc2C3=O)c(OC)c1`, the GI50 in the test on T47D and in the test on MDA-N was > 100 µM (inactive) each time.

With `CS(=O)(=O)c1nc(-c2cc3c(c(S(C)(=O)=O)n2)CCC3)cc2c1CCCCC2`, in the test on MDA-N, the GI50 was > 100 µM (inactive).

In the case of `C=C1C(O)CC[C@]2(C)C1C1OC(C)(C)O[C@]13CC(=O)C(C)=C([C@H]1OC(C)(C)OC12)C3(C)C` (some centres undefined), the GI50 in the test with T47D is 47.9 µM (inactive).

In the case of `Nc1nc(Cl)c2ncn(Cc3ccc(CCl)cc3)c2n1`, in the test with T47D, the GI50 was 6.98 µM (inactive).

In the case of `CSc1ccc(-c2cc(-c3nc4ccccc4[nH]3)nc3[nH]c(-c4nc5ccccc5[nH]4)cc(=O)c23)cc1`, the GI50 with T47D was 95.1 µM (inactive).

Turning to `Cc1ccc(OCC2OC(C#N)C(Oc3ccc(C)cc3)C2Oc2ccc(C)cc2)cc1` (centres undefined), in the test on T47D, the GI50 was > 100 µM (inactive).

Turning to `COc1ccc(/C=N/NC(=O)c2ccc(O)c(CN(C)C)c2)cc1`, the GI50 with T47D and in the test on MDA-N was > 100 µM (inactive) each time.

On to `CC1(c2ccc(Cl)cc2)C2C(=O)NC(=O)C1C(=O)NC2=O` (centres undefined), for which the GI50 in the test with DLD-1, in the test on LXFL 529, in the test on SNB-78 and in the test with XF498 was > 100 µM (inactive) throughout.

Take `Cc1ccc(-n2c(=O)c3nn4c(=O)n(-c5ccc(C)cc5)c(=O)c4nn3c2=O)cc1`: the GI50 in the test on T47D and in the test with MDA-N was > 100 µM (inactive) throughout.

Consider `Cc1ccc2c(c1C)CC1(Cc3c(ccc4c3CCC4)C1=O)C2=O` (centres undefined), for which the GI50 with T47D and in the test with MDA-N was > 100 µM (inactive) each time.

For the molecule `CC(C)=CC(=O)OC1C2C(C)C(=O)OC2C(O)C(C)C2C=CC(=O)C21C` (centres undefined), the GI50 in the test with HOP-18 was 6.67 µM (inactive); with DLD-1, 1.14 µM (inactive); in the test with SNB-78 it was 3.24 µM (inactive); with DMS-114, 2.58 µM (inactive); with XF498, 5.08 µM (inactive).

For `Cn1c(=O)sc2cc(C(=S)N3CCOCC3)ccc21`, the GI50 in the test on T47D and in the test with MDA-N was > 100 µM (inactive) each time.

For the molecule `COc1cc(/C=C2/SC(c3ccccc3)N(c3cccc(Cl)c3)C2=O)cc(OC)c1OC` (centres undefined), the GI50 in the test with T47D is 25.5 µM (inactive); with MDA-N, 16.3 µM (inactive).

Regarding `COc1ccc(/N=C2/SC(=N/N=c3\sc4ccccc4n3C)S/C2=N/c2ccc(OC)cc2)cc1`, the GI50 in the test on T47D was 23.3 µM (inactive); in the test on MDA-N it was > 100 µM (inactive).

As for `Oc1cc(-c2ccc(F)cc2)nc2ncccc12`, the GI50 in the test with T47D is 48.1 µM (inactive).

Turning to `CC(=O)OCCCC(NC(=O)OC(C)(C)C)C(=O)NC(CCCOC(C)=O)C(=O)NC(Cc1ccc([N+](=O)[O-])cc1)C(=O)NCC(=O)OCc1ccccc1` (centres undefined), the GI50 in the test with T47D is 18 µM (inactive); in the test on MDA-N, 15.3 µM (inactive).

With `C=C(NC(=O)C(=C)NC(=O)c1csc(C2=NC3c4csc(n4)C4NC(=O)c5csc(n5)C(C(C)(O)C(C)O)NC(=O)C5CSC(=N5)/C(=C/C)NC(=O)C(C(C)O)NC(=O)c5csc(n5)C3(CC2)NC(=O)C(C)NC(=O)C(=C)NC(=O)C(=C)NC(=O)C(C(C)C)NC2C=Cc3c(C(C)O)cc(nc3C2O)C(=O)OC4C)n1)C(N)=O` (centres undefined), the GI50 is 2.4 µM (inactive) in the test with T47D and 1.56 µM (inactive) in the test with MDA-N.

As to `O=c1[nH]cnc2c1ncn2[C@H]1CO[C@@H](CO)[C@@H]1O`, the GI50 in the test with T47D and in the test on MDA-N was > 100 µM (inactive) throughout.

Regarding `CN(C)CCN1C(=O)c2ccccc2C1(O)c1ccc(Cl)cc1` (centres undefined), the GI50 was 94.8 µM (inactive) in the test with T47D and 79.4 µM (inactive) with MDA-N.

Turning to `CC1(C)CC(C2=NCCO2)CC(C)(C)N1`, the GI50 in the test with T47D and in the test on MDA-N was > 100 µM (inactive) in each case.

Turning to `Cc1cccc(NC(=O)/C=C/c2ccccc2)c1C`, the GI50 in the test with T47D and with MDA-N was > 100 µM (inactive) each time.

Consider `c1ccc2c(c1)CCCN1CCc3ccccc3C21` (centres undefined), for which the GI50 in the test with T47D is > 100 µM (inactive); with MDA-N, 27 µM (inactive).

With `CC1=C(C(=O)NNC(=O)C(N)=O)CC(C(=O)NNC(=O)C(N)=O)=C(C)N1`, the GI50 in the test on T47D and in the test on MDA-N was > 100 µM (inactive) in each case.

Regarding `CN(CC(=O)N1CC(CCl)c2ccc([N+](=O)[O-])cc21)CC(=O)N1CC(CCl)c2ccc([N+](=O)[O-])cc21` (centres undefined), in the test on MDA-N, the GI50 is > 100 µM (inactive).

As to `Cc1cc(O)nc(NNC(C#N)c2cccc(O)c2)n1` (centres undefined), the GI50 with HOP-18 was 86.7 µM (inactive); in the test on DLD-1, > 100 µM (inactive); in the test with LXFL 529, > 100 µM (inactive); with SNB-78, > 100 µM (inactive); with DMS-114, > 100 µM (inactive).

With `O=c1n(-c2ccccc2)c(=O)n2n1C1C=CC2CCCCCC1`, the GI50 in the test on T47D was > 100 µM (inactive).

Take `Cn1c(=O)n(CC2CS2)c2ccccc21` (centres undefined): the GI50 is > 100 µM (inactive) in the test on DLD-1, > 100 µM (inactive) in the test with LXFL 529, 50.9 µM (inactive) with DMS-114 and > 100 µM (inactive) in the test with XF498.

Turning to `CC(C)(CC1(C)NC(=O)NC1=O)OCc1ccccc1` (centres undefined), the GI50 in the test on T47D is > 100 µM (inactive).

Consider `CN1N=C(c2ccncc2)OC1c1ccc(C(F)(F)F)cc1` (centres undefined), for which the GI50 with T47D is 0.495 µM (active); in the test with MDA-N, > 100 µM (inactive).

Turning to `COc1ccc(C2C(Cl)C(=O)N2NC(=O)c2ccc(N)cc2)cc1` (centres undefined), the GI50 in the test with DLD-1, with LXFL 529, in the test on SNB-78, in the test on DMS-114 and in the test on XF498 was > 100 µM (inactive) in each case.

For `CN1CN(c2ccccc2)C2(CCN(CCCCCCF)CC2)C1=O`, the GI50 in the test with T47D was 29.9 µM (inactive); in the test on MDA-N it was 63.8 µM (inactive).

With `CCN(CC)c1ccc(C2SCC(=O)N2c2ccc(NC(=O)c3ccc(N4C(=O)CSC4c4ccc(N(CC)CC)cc4)cc3)cc2)cc1` (centres undefined), in the test with T47D, the GI50 was 26.2 µM (inactive).

`COc1ccc(/C(Cl)=C(\CN(C)C)c2ccc(OC)c(OC)c2)cc1OC.[B]`: the GI50 was > 100 µM (inactive) in the test with HOP-18, > 100 µM (inactive) in the test with DLD-1, > 100 µM (inactive) in the test with LXFL 529 and 10.1 µM (inactive) in the test with SNB-78.

Regarding `NC(=O)N/N=C1\CC2C3CC4C2C4C13` (centres undefined), the GI50 in the test with T47D and with MDA-N was > 100 µM (inactive) each time.

Regarding `Oc1cccc(-c2ccc3c4c2O[C@H]2c5[nH]c6ccccc6c5C[C@@]5(O)[C@@H](C3)N(CC3CC3)CC[C@]425)c1`, the GI50 in the test with T47D is 2.07 µM (inactive); with MDA-N it was 1.67 µM (inactive).

As to `CC(=O)NC1C(OCc2ccccc2)OC(CO)C(O)C1OCC(=O)NC(C)C(=O)NC(CCC(=O)NCCCCCNc1c2ccccc2nc2cccc([N+](=O)[O-])c12)C(N)=O` (centres undefined), in the test with MDA-N, the GI50 is < 0.01 µM (active).

As to `CC(C(=O)O)c1ccc(-n2nnc3c(=O)[nH][nH]c(=O)c32)cc1` (centres undefined), the GI50 in the test on MDA-N was > 100 µM (inactive).

Consider `CC1(n2nc(-c3ccccc3)n(-c3ccccc3)c2=O)CSC1`, for which the GI50 is > 100 µM (inactive) in the test with DLD-1; > 100 µM (inactive) in the test on LXFL 529; > 100 µM (inactive) with SNB-78; 69.5 µM (inactive) in the test on DMS-114; 58.9 µM (inactive) in the test with XF498.

Regarding `Cc1cccc(C2NC(=O)c3ccccc3N2)c1` (centres undefined), the GI50 in the test on T47D was > 100 µM (inactive); in the test on MDA-N, 0.543 µM (active).

In the case of `Cc1cc(C)c2c(n1)S(=O)(=O)N(CCCN1CCN(c3cccc(C(F)(F)F)c3)CC1)C(C(=O)c1ccc(Cl)cc1)=C2O`, the GI50 in the test on T47D is 3.98 µM (inactive); in the test with MDA-N, 3.15 µM (inactive).

For the molecule `N#Cc1c(C#N)c(SSc2c(C#N)c(C#N)c(N)n2-c2ccc(F)cc2)n(-c2ccc(F)cc2)c1N`, the figures for the GI50 in the test on T47D and in the test on MDA-N were 2.7 µM (inactive) and 3.67 µM (inactive), respectively.

Turning to `O=C1/C(=C/c2cccc([N+](=O)[O-])c2)CCCc2ccccc21`, the GI50 in the test with MDA-N was 9.33 µM (inactive).

With `CCOC(=O)NNC(=O)NCCCCNC(=O)NNC(=O)OCC`, the GI50 in the test on T47D and in the test on MDA-N was > 100 µM (inactive) throughout.

For `O=Cc1cn(C(=O)c2ccccc2)c2ccccc12`, the GI50 is > 100 µM (inactive) with DLD-1, 51.3 µM (inactive) with LXFL 529, 36.9 µM (inactive) with SNB-78 and 60.1 µM (inactive) in the test on DMS-114.

For orientation: GI50 means the concentration at which growth is held to half of that of the control.
